Reference: ChEMBL document CHEMBL3885861, “Open TG-GATES”

Species: Rattus norvegicus
Assay: Open TG-GATES - Regimen: Single
Format: toxicity, organism-based, Sprague-Dawley
Parameters: regimen Single, gender Male, age 6 weeks
Details: in vivo, po, 0 mg/kg, route gavage, dose level Control; for KIDNEY_L / KIDNEY_R / KIDNEY_TOTAL: tissue Kidney; for LIVER: tissue Liver; for ALP / ALT / AST / BUN / CRE / Ca / DBIL / GLC / IP / K / LDH / Na / PL / RALB / TBIL / TC / TP / gamma-GTP / TG: tissue Plasma

O=C(O)c1cn(C2CC2)c2cc(N3CCNCC3)c(F)cc2c1=O [CIPROFLOXACIN]
TERMINAL_BW (3 h): 180.9 g
Bas (3 h, tissue Blood): 0%
Eos (3 h, tissue Blood): 0.6%
Fbg (3 h, tissue Blood): 202.2 mg/dL
Hb (3 h, tissue Blood): 13 g/dL
MCH (3 h, tissue Blood): 21.8 pg
MCV (3 h, tissue Blood): 65.5 fL
Mono (3 h, tissue Blood): 6%
PT (3 h, tissue Blood): 12.5 s
Plat (3 h, tissue Blood): 103.5 x10_4/uL
RBC (3 h, tissue Blood): 598.8 x10_4/ul
Ret (3 h, tissue Blood): 9.9%
WBC (3 h, tissue Blood): 128.2 x10_2/uL
KIDNEY_L (3 h): 0.8 g
KIDNEY_R (3 h): 0.9 g
KIDNEY_TOTAL (3 h): 1.7 g
LIVER (3 h): 8.3 g
ALP (3 h): 1050.6 IU/L
ALT (3 h): 38.4 IU/L
AST (3 h): 70.6 IU/L
BUN (3 h): 13.8 mg/dL
CRE (3 h): 0.4 mg/dL
Ca (3 h): 10.8 mg/dL
DBIL (3 h): 0.008 mg/dL
GLC (3 h): 186.6 mg/dL
IP (3 h): 9.5 mg/dL
K (3 h): 4.9 meq/L
LDH (3 h): 92.6 IU/L
Na (3 h): 138.2 meq/L
PL (3 h): 130.8 mg/dL
RALB (3 h): 3.8 g/dL
TBIL (3 h): 0.4 mg/dL
TC (3 h): 73.6 mg/dL
TP (3 h): 5.4 g/dL
gamma-GTP (3 h): 1.8 IU/L
TERMINAL_BW (6 h): 182.4 g
Bas (6 h, tissue Blood): 0%
Eos (6 h, tissue Blood): 0.6%
Fbg (6 h, tissue Blood): 211 mg/dL
Hb (6 h, tissue Blood): 12.6 g/dL
Lym (6 h, tissue Blood): 77%
MCH (6 h, tissue Blood): 21.8 pg
MCV (6 h, tissue Blood): 66.3 fL
Mono (6 h, tissue Blood): 6.8%
Neu (6 h, tissue Blood): 15.6%
PT (6 h, tissue Blood): 12.5 s
Plat (6 h, tissue Blood): 103 x10_4/uL
RBC (6 h, tissue Blood): 579 x10_4/ul
Ret (6 h, tissue Blood): 10.8%
WBC (6 h, tissue Blood): 125 x10_2/uL
KIDNEY_L (6 h): 0.9 g
KIDNEY_R (6 h): 0.9 g
KIDNEY_TOTAL (6 h): 1.8 g
LIVER (6 h): 8.5 g
ALP (6 h): 839.4 IU/L
ALT (6 h): 36.6 IU/L
BUN (6 h): 10.4 mg/dL
CRE (6 h): 0.5 mg/dL
DBIL (6 h): 0.024 mg/dL
GLC (6 h): 186.4 mg/dL
IP (6 h): 9.9 mg/dL
K (6 h): 5.1 meq/L
LDH (6 h): 103.2 IU/L
Na (6 h): 138.2 meq/L
PL (6 h): 136 mg/dL
RALB (6 h): 3.7 g/dL
TBIL (6 h): 0.4 mg/dL
TC (6 h): 80.6 mg/dL
TG (6 h): 42.2 mg/dL
TP (6 h): 5.5 g/dL
gamma-GTP (6 h): 1.4 IU/L
TERMINAL_BW (9 h): 177.8 g
APTT (9 h, tissue Blood): 17 s
Bas (9 h, tissue Blood): 0%
Eos (9 h, tissue Blood): 0.4%
Fbg (9 h, tissue Blood): 213.4 mg/dL
Hb (9 h, tissue Blood): 12.4 g/dL
Ht (9 h, tissue Blood): 37.5%
Lym (9 h, tissue Blood): 82.6%
MCH (9 h, tissue Blood): 21.7 pg
MCHC (9 h, tissue Blood): 33.1%
MCV (9 h, tissue Blood): 65.6 fL
Mono (9 h, tissue Blood): 6.8%
Neu (9 h, tissue Blood): 10%
PT (9 h, tissue Blood): 11.7 s
Plat (9 h, tissue Blood): 116.2 x10_4/uL
RBC (9 h, tissue Blood): 572.4 x10_4/ul
Ret (9 h, tissue Blood): 10.6%
WBC (9 h, tissue Blood): 115.5 x10_2/uL
KIDNEY_L (9 h): 0.8 g
KIDNEY_R (9 h): 0.8 g
KIDNEY_TOTAL (9 h): 1.7 g
LIVER (9 h): 7.5 g
ALP (9 h): 766 IU/L
ALT (9 h): 32.4 IU/L
AST (9 h): 68.4 IU/L
BUN (9 h): 10.6 mg/dL
CRE (9 h): 0.5 mg/dL
Ca (9 h): 10.9 mg/dL
DBIL (9 h): 0.056 mg/dL
GLC (9 h): 193 mg/dL
IP (9 h): 10.9 mg/dL
K (9 h): 4.9 meq/L
LDH (9 h): 92.4 IU/L
Na (9 h): 139.2 meq/L
PL (9 h): 120.4 mg/dL
RALB (9 h): 3.8 g/dL
TBIL (9 h): 0.3 mg/dL
TC (9 h): 71.8 mg/dL
TG (9 h): 29 mg/dL
TP (9 h): 5.5 g/dL
gamma-GTP (9 h): 1.4 IU/L
TERMINAL_BW (24 h): 194.5 g
APTT (24 h, tissue Blood): 16.4 s
Bas (24 h, tissue Blood): 0%
Eos (24 h, tissue Blood): 1%
Fbg (24 h, tissue Blood): 209.2 mg/dL
Hb (24 h, tissue Blood): 13.1 g/dL
Lym (24 h, tissue Blood): 80%
MCH (24 h, tissue Blood): 22 pg
MCHC (24 h, tissue Blood): 33.4%
MCV (24 h, tissue Blood): 65.8 fL
Mono (24 h, tissue Blood): 7.2%
Plat (24 h, tissue Blood): 103.8 x10_4/uL
RBC (24 h, tissue Blood): 598.2 x10_4/ul
Ret (24 h, tissue Blood): 9.7%
WBC (24 h, tissue Blood): 132.8 x10_2/uL
KIDNEY_L (24 h): 0.9 g
KIDNEY_R (24 h): 0.9 g
KIDNEY_TOTAL (24 h): 1.8 g
LIVER (24 h): 9.8 g
ALP (24 h): 1038.8 IU/L
ALT (24 h): 47 IU/L
AST (24 h): 74.8 IU/L
BUN (24 h): 17.4 mg/dL
CRE (24 h): 0.5 mg/dL
Ca (24 h): 11.3 mg/dL
DBIL (24 h): 0.074 mg/dL
GLC (24 h): 187.2 mg/dL
IP (24 h): 8.3 mg/dL
K (24 h): 4.7 meq/L
LDH (24 h): 96.8 IU/L
Na (24 h): 138.8 meq/L
PL (24 h): 157.2 mg/dL
RALB (24 h): 4 g/dL
TBIL (24 h): 0.3 mg/dL
TC (24 h): 89 mg/dL
TG (24 h): 89.4 mg/dL
TP (24 h): 5.7 g/dL
gamma-GTP (24 h): 1.2 IU/L
